Results from patent US20140194477A1, “KINASE PROTEIN BINDING INHIBITORS” (Roswell Park Cancer Institute, priority 2011, published 2014).

What was measured:
[1] = 7-day multiple-dose MTD toxicologic study of Y15, oral gavage, CD-1 mice; type: in vivo; details: both sexes, CD-1, mouse, in vivo, oral gavage in mice, daily for 7 days
Procedure: (§5) • A 7-day, multiple-dose maximum tolerated dose toxicologic study of the chemical 1,2,4,5-Benzenetetramine tetrahydrochloride (Y15) was performed in CD-1 mice.
(§6) • The chemical 1,2,4,5-Benzenetetramine tetrahydrochloride (Y15) was the test article. Y-15 is a chemical grade compound available through Sigma-Aldrich, The test article was prepared in phosphate buffered saline (PBS). The test article was prepared by the sponsor and delivered to the study director prior to the study. The test article was stored in the freezer (0° C.), protected from light.
(§7) • The CD-1 [Hsd:ICR(CD-1)] albino mouse was used. […] Mice were obtained from Harlan (Frederick, Md.). • Mice were acclimated for a minimum of 2 days prior to testing. 20 male and 20 female mice, nulliparous and non-pregnant, were used. Normal weight gain, appearance and behavior were factors used to select healthy mice for testing. Only naive animals were used. Mice weighed 22-35 grams (males) and 20-27 grams (females), and were in good health at the start of the study. Mice were randomly assigned to 4 experimental groups (controls, low-dose, medium-dose, and high-dose) consisting of 5 males and 5 females. Mice were identified via cage cards, tail markings, and ear punch. Mouse identification codes contained information regarding experimental group (C=control, L=low-dose, M=medium-dose, H=high-dose), sex (M=male, F=female), and animal number (1-5). […] Tap water acidified to a pH of 2.5-3.5 was provided in autoclaved water bottles ad libitum. […] Environmental conditions in the animal housing room were maintained at an ambient temperature of 70±3°, relative humidity of 30-70%, and a 12:12 light-dark cycle. Animal housing rooms were ventilated with 100% fresh, HEPA filtered air with 10-15 air changes per hour.
(§8) A 7-day multiple-dose MTD toxicology study was performed.
(§9) The test article Y-15 was prepared in PBS and administered orally (PO) via orogastric gavage as a single daily dose on days 0-6 in the morning. The test article (Y-15) was diluted with the control article (PBS) so as not to exceed a volume of 100 μL. The test article was stored in the freezer (0° C.) and allowed to thaw and come to room temperature prior to administration. Mice were randomly allocated into 4 groups (controls, low-dose, medium-dose, and high-dose) consisting of 5 males and 5 females. Dosages were calculated on a “per mouse” basis, not on a mg/kg basis. […] Mice in the high-dose group received the equivalent of a 300 mg/kg dose for a 20 g mouse (6 mg). Mice in the control group received 100 μL of the control article (PBS). Groups received the following doses, drug concentrations, and gavage volumes, as outlined in Table 2:

CD-1 mice [2] = assay: as above; type: in vivo
Procedure: as §5, §6, §7, §8, §9

FAK = FAK (Homo sapiens, UniProt Q05397); assay: FAK Y397 phosphorylation; type: biochemical; details: in vitro
[3] = 7-day single-dose MTD toxicologic study of Y15, oral gavage, CD-1 mice; type: in vivo; details: both sexes, CD-1, mouse, in vivo, po
Procedure: (§1) • A 7-day, single-dose maximum tolerated dose toxicologic study of the chemical 1,2,4,5-Benzenetetramine tetrahydrochloride (Y-15) was performed in CD-1 mice.
(§2) • The chemical 1,2,4,5-Benzenetetramine tetrahydrochloride (Y-15) was the test article. Y-15 is a chemical grade compound available through Sigma-Aldrich. The test article was prepared in phosphate buffered saline (PBS). The test article was prepared by the sponsor and delivered to the study director prior to the study. The test article was stored in the freezer (0° C.), protected from light.
(§3) • The CD-1 [Hsd:ICR(CD-1)] albino mouse was used. The CD-1 mouse is conventionally used in toxicity tests to provide information on which human hazards can be judged, and is one of the choices of species preferred by regulatory agencies. Mice were obtained from Harlan (Frederick, Md.). • Mice were acclimated for a minimum of 2 days prior to testing. […] mice, nulliparous and non-pregnant, were used. Normal weight gain, appearance and behavior were factors used to select healthy mice for testing. Only naive animals were used. Mice were 4-7 weeks old, weighed 22-34 grams (males) and 19-24 grams (females), and were in good health at the start of the study. Mice were 5-8 weeks old, weighed 23-36 grams (males) and 20-25 grams (females) at the conclusion of the study. • Mice were randomly assigned to 8 experimental groups consisting of 3 males and 3 females which received increasing doses of the chemical Y-15. Mice were identified via cage cards, tail markings, and ear punch. Mouse identification codes contained information regarding experimental group (A=15 mg/kg dose group, B=30 mg/kg dose group, C=60 mg/kg dose group, D=90 mg/kg dose group, E=120 mg/kg dose group, F=150 mg/kg dose group, G=200 mg/kg dose group, and H=250 mg/kg dose group), sex (M=male, F=female), and animal number (1-3). Mice were fed autoclaved Harlan-Teklad sterilizable 7012 mouse/rat diet ad libitum. The feed is routinely analyzed by the manufacturer for nutritional components and environmental contaminants. Tap water acidified to a pH of 2.5-3.5 was provided in autoclaved water bottles ad libitum. Municipal water supply is analyzed by the Bureau Veritas Consumer Product Services of Buffalo, NY on an annual basis. […]
(§4) • The test article 1,2,4,5-Benzenetetramine tetrahydrochloride (Y15) was prepared in PBS and administered orally (PO) via orogastric gavage as a single dose on day 0 in the morning. […] Dosages were calculated on a “per mouse” basis, not on a mg/kg basis. […]

CD-1 mice [4] = assay: as above; type: in vivo
Procedure: as §1, §2, §3, §4

cancer cell = assay: Cancer cell viability in vitro; type: cell-based

Chain of FAK (Q05397 whole entry): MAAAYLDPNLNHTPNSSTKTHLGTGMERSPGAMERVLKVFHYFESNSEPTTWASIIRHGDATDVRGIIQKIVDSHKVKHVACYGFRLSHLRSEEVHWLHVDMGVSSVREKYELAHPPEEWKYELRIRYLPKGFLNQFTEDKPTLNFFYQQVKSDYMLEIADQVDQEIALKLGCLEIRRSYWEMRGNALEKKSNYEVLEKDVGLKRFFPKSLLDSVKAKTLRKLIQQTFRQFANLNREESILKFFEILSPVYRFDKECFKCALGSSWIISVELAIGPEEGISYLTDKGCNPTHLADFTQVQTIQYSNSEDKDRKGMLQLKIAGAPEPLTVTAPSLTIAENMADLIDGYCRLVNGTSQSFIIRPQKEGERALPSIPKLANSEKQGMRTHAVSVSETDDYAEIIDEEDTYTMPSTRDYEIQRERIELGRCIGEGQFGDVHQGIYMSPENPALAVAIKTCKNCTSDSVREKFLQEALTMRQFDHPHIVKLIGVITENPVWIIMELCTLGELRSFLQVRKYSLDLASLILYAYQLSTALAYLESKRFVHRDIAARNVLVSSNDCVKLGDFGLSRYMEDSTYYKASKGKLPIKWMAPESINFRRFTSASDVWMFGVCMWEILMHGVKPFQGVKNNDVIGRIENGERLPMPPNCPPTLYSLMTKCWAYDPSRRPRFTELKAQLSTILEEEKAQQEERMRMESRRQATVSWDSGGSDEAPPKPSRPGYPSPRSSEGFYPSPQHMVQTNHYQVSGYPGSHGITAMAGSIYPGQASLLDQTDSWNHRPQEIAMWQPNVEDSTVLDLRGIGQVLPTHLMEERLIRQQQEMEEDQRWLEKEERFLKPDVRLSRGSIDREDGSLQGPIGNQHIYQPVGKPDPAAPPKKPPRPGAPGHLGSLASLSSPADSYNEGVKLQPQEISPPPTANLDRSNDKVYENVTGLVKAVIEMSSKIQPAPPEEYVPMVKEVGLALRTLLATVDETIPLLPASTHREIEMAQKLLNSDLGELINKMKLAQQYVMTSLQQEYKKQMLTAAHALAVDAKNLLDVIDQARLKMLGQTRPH

Cl.Cl.Cl.Cl.Nc1cc(N)c(N)cc1N [Y15, 1,2,4,5-benzenetetraamine tetrahydrochloride]
MTD at 7 days [1]: ≥ 100 mg/kg | NOAEL at 7 days ([1]; read-out: no observable adverse effects level (NOAEL)): 100 mg/kg | maximal tolerated dose (summary statement) (CD-1 mice [2]; delivery 5 days/week, duration 7 days): 200 mg/kg | toxicity findings, medium-dose group (CD-1 mice [2]; oral gavage daily days 0-6, 100 mg/kg): no mortality, clinical signs of toxicity, or decrement in mean body weight | toxicity findings, high-dose group (CD-1 mice [2]; oral gavage daily days 0-6, 200 mg/kg): weight loss, severe clinical signs of abdominal distention, and mortality due to gastrointestinal dilatation | Y397-phosphorylation of FAK in vitro (FAK): directly and specifically decreases | MTD at 7 days [3]: 200 mg/kg | maximal tolerated dose (summary statement) (CD-1 mice [4]; delivery once /week, duration 7 days): 250 mg/kg | toxicity findings, other dose groups (CD-1 mice [4]; single oral gavage dose, 15-200 mg/kg groups): no mortality, adverse clinical signs, or decrement in body weight greater than 10% | mortality, highest dose group (CD-1 mice [4]; single oral gavage dose, group H 250 mg/kg): mortality was seen | cancer cell viability in vitro (cancer cell): inhibits cancer cell viability in vitro
